Source: publication PMC9934367, “Functional impact of subunit composition and compensation on Drosophila melanogaster nicotinic receptors–targets of neonicotinoids” (PLOS Genetics, 2023)

System: D. melanogaster nAChRs
Assay: Comparison of agonist activity between nAChRs expressed in X. laevis oocytes (one-way ANOVA, Kruskal-Wallis)
Assay type: cell-based
Summary of the method: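 Agonist pEC50 values, derived from Hill fits of normalised peak currents, were compared across receptors by one-way ANOVA or Kruskal-Wallis. Currents came from oocytes clamped at −100 mV and perfused with atropine-containing saline (0.5 μM), 3–4 days after cRNA injection of fly nAChR subunits and co-factors.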

[1] = Dα1/Dα2/Dα3/Dβ1/Dβ2 vs. Dα1/Dα2/Dβ1/Dβ2/Dβ3
[2] = Dα1/Dα2/Dα3/Dβ1/Dβ2 vs. Dα1/Dα3/Dα4/Dβ1/Dβ2
[3] = Dα1/Dα2/Dα3/Dβ1/Dβ2 vs. Dα1/Dα3/Dβ1/Dβ2/Dβ3
[4] = Dα1/Dα2/Dα3/Dβ1/Dβ2 vs. Dα2/Dα3/Dα4/Dβ1/Dβ2
[5] = Dα1/Dα2/Dα3/Dβ1/Dβ2 vs. Dα2/Dα3/Dβ1/Dβ2/Dβ3
[6] = Dα1/Dα2/Dα3/Dβ1 vs. Dα1/Dα2/Dα3/Dβ1/Dβ2
[7] = Dα1/Dα2/Dα3/Dβ1 vs. Dα1/Dα2/Dβ1/Dβ2
[8] = Dα1/Dα2/Dα3/Dβ1 vs. Dα1/Dα3/Dβ1/Dβ2
[9] = Dα1/Dα2/Dα3/Dβ1 vs. Dα1/Dβ1/Dβ2
[10] = Dα1/Dα2/Dα3/Dβ1 vs. Dα2/Dα3/Dβ1/Dβ2
[11] = Dα1/Dα2/Dα3/Dβ1 vs. Dα3/Dβ1/Dβ2
[12] = Dα1/Dα2/Dβ1/Dβ2 vs. Dα1/Dα2/Dα3/Dβ1/Dβ2
[13] = Dα1/Dα2/Dβ1/Dβ2 vs. Dα2/Dα3/Dβ1/Dβ2
[14] = Dα1/Dα2/Dβ1 vs. Dα1/Dα2/Dα3/Dβ1
[15] = Dα1/Dα2/Dβ1 vs. Dα1/Dα2/Dα3/Dβ1/Dβ2
[16] = Dα1/Dα2/Dβ1 vs. Dα1/Dα2/Dβ1/Dβ2
[17] = Dα1/Dα2/Dβ1 vs. Dα1/Dα3/Dβ1/Dβ2
[18] = Dα1/Dα2/Dβ1 vs. Dα2/Dα3/Dβ1/Dβ2
[19] = Dα1/Dα3/Dβ1/Dβ2 vs. Dα1/Dα2/Dα3/Dβ1/Dβ2
[20] = Dα1/Dα3/Dβ1/Dβ2 vs. Dα1/Dα2/Dβ1/Dβ2
[21] = Dα1/Dα3/Dβ1/Dβ2 vs. Dα2/Dα3/Dβ1/Dβ2
[22] = Dα1/Dα3/Dβ1 vs. Dα1/Dα2/Dα3/Dβ1
[23] = Dα1/Dα3/Dβ1 vs. Dα1/Dα2/Dα3/Dβ1/Dβ2
[24] = Dα1/Dα3/Dβ1 vs. Dα1/Dα2/Dβ1/Dβ2
[25] = Dα1/Dα3/Dβ1 vs. Dα1/Dα3/Dβ1/Dβ2
[26] = Dα1/Dα3/Dβ1 vs. Dα2/Dα3/Dβ1/Dβ2
[27] = Dα1/Dβ1/Dβ2 vs. Dα1/Dα2/Dα3/Dβ1/Dβ2
[28] = Dα1/Dβ1/Dβ2 vs. Dα1/Dα2/Dβ1/Dβ2
[29] = Dα1/Dβ1/Dβ2 vs. Dα1/Dα3/Dβ1/Dβ2
[30] = Dα1/Dβ1/Dβ2 vs. Dα2/Dα3/Dβ1/Dβ2
[31] = Dα1/Dβ1 vs. Dα1/Dα2/Dα3/Dβ1/Dβ2
[32] = Dα2/Dα3/Dβ1/Dβ2 vs. Dα1/Dα2/Dα3/Dβ1/Dβ2
[33] = Dα2/Dα3/Dβ1 vs. Dα1/Dα2/Dα3/Dβ1
[34] = Dα2/Dα3/Dβ1 vs. Dα1/Dα2/Dα3/Dβ1/Dβ2
[35] = Dα2/Dα3/Dβ1 vs. Dα1/Dα2/Dβ1/Dβ2
[36] = Dα2/Dα3/Dβ1 vs. Dα1/Dα3/Dβ1/Dβ2
[37] = Dα2/Dα3/Dβ1 vs. Dα2/Dα3/Dβ1/Dβ2
[38] = Dα3/Dβ1/Dβ2 vs. Dα1/Dα2/Dα3/Dβ1/Dβ2
[39] = Dα3/Dβ1/Dβ2 vs. Dα1/Dα2/Dβ1/Dβ2
[40] = Dα3/Dβ1/Dβ2 vs. Dα1/Dα3/Dβ1/Dβ2
[41] = Dα3/Dβ1/Dβ2 vs. Dα2/Dα3/Dβ1/Dβ2
[42] = Dα3/Dβ1 vs. Dα1/Dα2/Dα3/Dβ1/Dβ2

O=[N+]([O-])NC1=NCCN1Cc1ccc(Cl)nc1 [Imidacloprid, imidacloprid]
Difference of Imax values, nAChRs compared (Dα1/Dα2/Dα3/Dβ1/Dβ2 vs. Dα1/Dα2/Dα4/Dβ1/Dβ2): -0.030 | Difference of Imax values, nAChRs compared [1]: 0.062 | Difference of pEC50 values, nAChRs compared [1]: 0.21 | Difference of Imax values, nAChRs compared [2]: 0.041 | Difference of pEC50 values, nAChRs compared [2]: -0.83 | Difference of Imax values, nAChRs compared [3]: 0.002 | Difference of pEC50 values, nAChRs compared [3]: -1.25 | Difference of Imax values, nAChRs compared [4]: 0.115 | Difference of pEC50 values, nAChRs compared [4]: -0.93 | Difference of Imax values, nAChRs compared [5]: 0.121 | Difference of pEC50 values, nAChRs compared [5]: -1.28 | Difference of Imax values [6]: -0.048 | Difference of pEC50 values [6]: 0.61 | Difference of Imax values [7]: -0.071 | Difference of pEC50 values [7]: 0.63 | Difference of Imax values [8]: -0.236 | Difference of pEC50 values [8]: -0.44 | Difference of Imax values [9]: 0.018 | Difference of pEC50 values [9]: 0.09 | Difference of Imax values [10]: -0.031 | Difference of pEC50 values [10]: 0.08 | Difference of Imax values [11]: 0.055 | Difference of pEC50 values [11]: -1.20 | Difference of Imax values [12]: 0.023 | Difference of pEC50 values [12]: -0.02 | Difference of Imax values [13]: 0.040 | Difference of pEC50 values [13]: -0.55 | Difference of Imax values [14]: -0.063 | Difference of pEC50 values [14]: -0.37 | Difference of Imax values [15]: -0.111 | Difference of pEC50 values [15]: 0.24 | Difference of Imax values [16]: -0.134 | Difference of pEC50 values [16]: 0.26 | Difference of Imax values [17]: -0.299 | Difference of pEC50 values [17]: -0.81 | Difference of Imax values (Dα1/Dα2/Dβ1 vs. Dα1/Dβ1/Dβ2): -0.045 | Difference of pEC50 values (Dα1/Dα2/Dβ1 vs. Dα1/Dβ1/Dβ2): -0.28 | Difference of Imax values (Dα1/Dα2/Dβ1 vs. Dα2/Dα3/Dβ1): -0.070 | Difference of pEC50 values (Dα1/Dα2/Dβ1 vs. Dα2/Dα3/Dβ1): -0.17 | Difference of Imax values [18]: -0.094 | Difference of pEC50 values [18]: -0.29 | Difference of Imax values (Dα1/Dα2/Dβ1 vs. Dα3/Dβ1/Dβ2): -0.008 | Difference of pEC50 values (Dα1/Dα2/Dβ1 vs. Dα3/Dβ1/Dβ2): -1.57 | Difference of Imax values [19]: 0.188 | Difference of pEC50 values [19]: 1.05 | Difference of Imax values [20]: 0.165 | Difference of pEC50 values [20]: 1.07 | Difference of Imax values [21]: 0.205 | Difference of pEC50 values [21]: 0.52 | Difference of Imax values [22]: 0.076 | Difference of pEC50 values [22]: 0.50 | Difference of Imax values [23]: 0.028 | Difference of pEC50 values [23]: 1.11 | Difference of Imax values (Dα1/Dα3/Dβ1 vs. Dα1/Dα2/Dβ1): 0.139 | Difference of pEC50 values (Dα1/Dα3/Dβ1 vs. Dα1/Dα2/Dβ1): 0.87 | Difference of Imax values [24]: 0.005 | Difference of pEC50 values [24]: 1.13 | Difference of Imax values [25]: -0.160 | Difference of pEC50 values [25]: 0.06 | Difference of Imax values (Dα1/Dα3/Dβ1 vs. Dα1/Dβ1/Dβ2): 0.094 | Difference of pEC50 values (Dα1/Dα3/Dβ1 vs. Dα1/Dβ1/Dβ2): 0.59 | Difference of Imax values (Dα1/Dα3/Dβ1 vs. Dα2/Dα3/Dβ1): 0.069 | Difference of pEC50 values (Dα1/Dα3/Dβ1 vs. Dα2/Dα3/Dβ1): 0.70 | Difference of Imax values [26]: 0.045 | Difference of pEC50 values [26]: 0.58 | Difference of Imax values (Dα1/Dα3/Dβ1 vs. Dα3/Dβ1/Dβ2): 0.131 | Difference of pEC50 values (Dα1/Dα3/Dβ1 vs. Dα3/Dβ1/Dβ2): -0.70 | Difference of Imax values [27]: -0.066 | Difference of pEC50 values [27]: 0.52 | Difference of Imax values [28]: -0.089 | Difference of pEC50 values [28]: 0.54 | Difference of Imax values [29]: -0.254 | Difference of pEC50 values [29]: -0.53 | Difference of Imax values [30]: -0.049 | Difference of pEC50 values [30]: -0.01 | Difference of Imax values (Dα1/Dβ1/Dβ2 vs. Dα3/Dβ1/Dβ2): 0.037 | Difference of pEC50 values (Dα1/Dβ1/Dβ2 vs. Dα3/Dβ1/Dβ2): -1.29 | Difference of Imax values (Dα1/Dβ1 vs. Dα1/Dα2/Dα3/Dβ1): 0.028 | Difference of pEC50 values (Dα1/Dβ1 vs. Dα1/Dα2/Dα3/Dβ1): 0.08 | Difference of Imax values [31]: -0.020 | Difference of pEC50 values [31]: 0.69 | Difference of Imax values (Dα1/Dβ1 vs. Dα1/Dα2/Dβ1): 0.091 | Difference of pEC50 values (Dα1/Dβ1 vs. Dα1/Dα2/Dβ1): 0.45 | Difference of Imax values (Dα1/Dβ1 vs. Dα1/Dα2/Dβ1/Dβ2): -0.043 | Difference of pEC50 values (Dα1/Dβ1 vs. Dα1/Dα2/Dβ1/Dβ2): 0.71 | Difference of Imax values (Dα1/Dβ1 vs. Dα1/Dα3/Dβ1): -0.048 | Difference of pEC50 values (Dα1/Dβ1 vs. Dα1/Dα3/Dβ1): -0.42 | Difference of Imax values (Dα1/Dβ1 vs. Dα1/Dα3/Dβ1/Dβ2): -0.208 | Difference of pEC50 values (Dα1/Dβ1 vs. Dα1/Dα3/Dβ1/Dβ2): -0.36 | Difference of Imax values (Dα1/Dβ1 vs. Dα1/Dβ1/Dβ2): 0.046 | Difference of pEC50 values (Dα1/Dβ1 vs. Dα1/Dβ1/Dβ2): 0.17 | Difference of Imax values (Dα1/Dβ1 vs. Dα2/Dα3/Dβ1): 0.021 | Difference of pEC50 values (Dα1/Dβ1 vs. Dα2/Dα3/Dβ1): 0.28 | Difference of Imax values (Dα1/Dβ1 vs. Dα2/Dα3/Dβ1/Dβ2): -0.003 | Difference of pEC50 values (Dα1/Dβ1 vs. Dα2/Dα3/Dβ1/Dβ2): 0.16 | Difference of Imax values (Dα1/Dβ1 vs. Dα3/Dβ1): 0.090 | Difference of pEC50 values (Dα1/Dβ1 vs. Dα3/Dβ1): -1.16 | Difference of Imax values (Dα1/Dβ1 vs. Dα3/Dβ1/Dβ2): 0.083 | Difference of pEC50 values (Dα1/Dβ1 vs. Dα3/Dβ1/Dβ2): -1.12 | Difference of Imax values [32]: -0.017 | Difference of pEC50 values [32]: 0.53 | Difference of Imax values [33]: 0.007 | Difference of pEC50 values [33]: -0.20 | Difference of Imax values [34]: -0.041 | Difference of pEC50 values [34]: 0.41 | Difference of Imax values [35]: -0.064 | Difference of pEC50 values [35]: 0.43 | Difference of Imax values [36]: -0.229 | Difference of pEC50 values [36]: -0.64 | Difference of Imax values (Dα2/Dα3/Dβ1 vs. Dα1/Dβ1/Dβ2): 0.025 | Difference of pEC50 values (Dα2/Dα3/Dβ1 vs. Dα1/Dβ1/Dβ2): -0.11 | Difference of Imax values [37]: -0.024 | Difference of pEC50 values [37]: -0.12 | Difference of Imax values (Dα2/Dα3/Dβ1 vs. Dα3/Dβ1/Dβ2): 0.062 | Difference of pEC50 values (Dα2/Dα3/Dβ1 vs. Dα3/Dβ1/Dβ2): -1.40 | Difference of Imax values [38]: -0.103 | Difference of pEC50 values [38]: 1.81 | Difference of Imax values [39]: -0.126 | Difference of pEC50 values [39]: 1.83 | Difference of Imax values [40]: -0.291 | Difference of pEC50 values [40]: 0.76 | Difference of Imax values [41]: -0.086 | Difference of pEC50 values [41]: 1.28 | Difference of Imax values (Dα3/Dβ1 vs. Dα1/Dα2/Dα3/Dβ1): -0.062 | Difference of pEC50 values (Dα3/Dβ1 vs. Dα1/Dα2/Dα3/Dβ1): 1.24 | Difference of Imax values [42]: -0.110 | Difference of pEC50 values [42]: 1.85 | Difference of Imax values (Dα3/Dβ1 vs. Dα1/Dα2/Dβ1): 0.001 | Difference of pEC50 values (Dα3/Dβ1 vs. Dα1/Dα2/Dβ1): 1.61 | Difference of Imax values (Dα3/Dβ1 vs. Dα1/Dα2/Dβ1/Dβ2): -0.133 | Difference of pEC50 values (Dα3/Dβ1 vs. Dα1/Dα2/Dβ1/Dβ2): 1.87 | Difference of Imax values (Dα3/Dβ1 vs. Dα1/Dα3/Dβ1): -0.138 | Difference of pEC50 values (Dα3/Dβ1 vs. Dα1/Dα3/Dβ1): 0.74 | Difference of Imax values (Dα3/Dβ1 vs. Dα1/Dα3/Dβ1/Dβ2): -0.298 | Difference of pEC50 values (Dα3/Dβ1 vs. Dα1/Dα3/Dβ1/Dβ2): 0.80 | Difference of Imax values (Dα3/Dβ1 vs. Dα1/Dβ1/Dβ2): -0.044 | Difference of pEC50 values (Dα3/Dβ1 vs. Dα1/Dβ1/Dβ2): 1.33 | Difference of Imax values (Dα3/Dβ1 vs. Dα2/Dα3/Dβ1): -0.069 | Difference of pEC50 values (Dα3/Dβ1 vs. Dα2/Dα3/Dβ1): 1.44 | Difference of Imax values (Dα3/Dβ1 vs. Dα2/Dα3/Dβ1/Dβ2): -0.093 | Difference of pEC50 values (Dα3/Dβ1 vs. Dα2/Dα3/Dβ1/Dβ2): 1.32 | Difference of Imax values (Dα3/Dβ1 vs. Dα3/Dβ1/Dβ2): -0.007 | Difference of pEC50 values (Dα3/Dβ1 vs. Dα3/Dβ1/Dβ2): 0.04
